According to PMC11490619, “Discovery of Trypanosoma brucei inhibitors enabled by a unified synthesis of diverse sulfonyl fluorides” (Communications Chemistry, 2024):

Columns and labels:
[1] = system: T1, Trypanosoma brucei brucei bloodstream forms; experiment: microbe, parasite or virus in culture; design: Resazurin viability of bloodstream form parasites, fluorescence 560/590 nm, dose-response, initial screen n = 1; conditions: initial screen, n = 1, 0.5% DMSO
T1 construct: 427 single marker, bloodstream form
Method: Cell viability assays were carried out in 96 well plates with 200 µL of culture per well as described previously. For this study we used bloodstream forms (BSF) of Trypanosoma brucei brucei strain 427 single marker. Axenic cultures of parasites were maintained at the logarithmic phase of cell proliferation (density below 2 ×10^6 parasites/mL) by successive passages in HMI-11 media supplemented with 10% heat inactivated foetal calf serum and 2.5 mg/L geneticin (Ge418) at 37°C under an atmosphere of 5% CO2. Parasites were seeded at 5 ×10^3 cells/mL and incubated with drug for 66 hours. The plate included wells containing the positive control pentamidine (100 nM) and the negative control of 0.5% DMSO. After 66 hours, 10 µL of 1.1 mg/mL Resazurin sodium salt was added in PBS and incubated for a further 6 hours. Plates were then read on a plate reader using excitation/emission 560/590 nm. EC50 values and errors were calculated using a sigmoidal dose response fitting algorithm. The initial screen was performed at n = 1 with follow-up screen of hits n = 4 technical replicates. The set of diverse sulfonyl fluoride probes was screened against Trypanosoma brucei brucei bloodstream forms in 96-well plate format (final concentrations: 0.1–100 μM in 0.5% dimethyl sulfoxide (DMSO); n = 1) (Fig. 3b). […]

[2] = molecular target: T2, lyso-phospholipase (D6XM23) (Trypanosoma brucei, UniProt D6XM23); experiment: C-1alk click biotin pulldown, LFQ LC-MS/MS; assay type: biochemical; conditions: covalent; labelled compound; parasite lysate; 1.5 uM C-1alk, 1 h, 25 C
T2 construct: gene Tb08.11J15.160; native protein in parasite lysate, about 30 kDa

[3] = molecular target: T3, T. brucei glycerol kinase (Q38DF0) (Trypanosoma brucei, UniProt Q38DF0); experiment: modified-peptide LC-MS/MS after click to cleavable biotin-azide; assay type: binding; conditions: covalent; labelled compound; parasite lysate; site S137, T138 or Y139
T3 construct: gene Tb09.211.3570; native protein in parasite lysate

[4] = molecular target: T4, prolyl endo-/oligo-peptidase S9 (Q38AG2) (Trypanosoma brucei, UniProt Q38AG2); experiment: C-1alk click biotin pulldown, LFQ LC-MS/MS; assay type: biochemical; conditions: covalent; labelled compound; parasite lysate; 1.5 uM C-1alk, 1 h, 25 C
T4 construct: gene Tb10.6k15.2520; native protein in parasite lysate
T4 sequence (Q38AG2 entry or part of it, one chain of several): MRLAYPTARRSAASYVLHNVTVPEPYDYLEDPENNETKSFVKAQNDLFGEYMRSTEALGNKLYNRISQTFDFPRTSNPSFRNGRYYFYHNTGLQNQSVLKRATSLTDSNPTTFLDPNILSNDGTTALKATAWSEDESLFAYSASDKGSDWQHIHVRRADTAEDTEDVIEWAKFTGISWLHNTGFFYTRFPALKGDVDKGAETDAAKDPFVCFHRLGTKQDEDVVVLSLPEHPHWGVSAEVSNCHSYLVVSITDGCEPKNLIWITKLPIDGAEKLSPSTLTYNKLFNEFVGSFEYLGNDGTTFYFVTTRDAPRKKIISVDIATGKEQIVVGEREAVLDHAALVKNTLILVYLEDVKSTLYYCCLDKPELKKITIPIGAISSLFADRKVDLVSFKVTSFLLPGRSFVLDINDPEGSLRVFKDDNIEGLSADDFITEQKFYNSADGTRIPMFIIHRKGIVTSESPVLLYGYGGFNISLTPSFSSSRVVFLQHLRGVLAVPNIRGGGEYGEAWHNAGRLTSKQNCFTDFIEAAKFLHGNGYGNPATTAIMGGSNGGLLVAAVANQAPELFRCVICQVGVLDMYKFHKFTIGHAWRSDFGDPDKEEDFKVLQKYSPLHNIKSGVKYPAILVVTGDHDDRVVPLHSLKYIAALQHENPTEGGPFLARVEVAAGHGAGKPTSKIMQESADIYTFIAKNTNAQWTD

T2 sequence (D6XM23 entry or part of it): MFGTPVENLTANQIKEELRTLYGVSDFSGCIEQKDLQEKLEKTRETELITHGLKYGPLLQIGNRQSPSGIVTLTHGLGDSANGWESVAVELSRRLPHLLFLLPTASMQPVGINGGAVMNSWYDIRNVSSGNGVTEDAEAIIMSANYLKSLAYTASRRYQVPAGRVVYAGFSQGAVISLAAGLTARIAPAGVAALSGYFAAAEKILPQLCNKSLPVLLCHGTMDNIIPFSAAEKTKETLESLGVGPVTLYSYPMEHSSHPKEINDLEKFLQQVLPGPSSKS
T3 sequence (Q38DF0 entry or part of it): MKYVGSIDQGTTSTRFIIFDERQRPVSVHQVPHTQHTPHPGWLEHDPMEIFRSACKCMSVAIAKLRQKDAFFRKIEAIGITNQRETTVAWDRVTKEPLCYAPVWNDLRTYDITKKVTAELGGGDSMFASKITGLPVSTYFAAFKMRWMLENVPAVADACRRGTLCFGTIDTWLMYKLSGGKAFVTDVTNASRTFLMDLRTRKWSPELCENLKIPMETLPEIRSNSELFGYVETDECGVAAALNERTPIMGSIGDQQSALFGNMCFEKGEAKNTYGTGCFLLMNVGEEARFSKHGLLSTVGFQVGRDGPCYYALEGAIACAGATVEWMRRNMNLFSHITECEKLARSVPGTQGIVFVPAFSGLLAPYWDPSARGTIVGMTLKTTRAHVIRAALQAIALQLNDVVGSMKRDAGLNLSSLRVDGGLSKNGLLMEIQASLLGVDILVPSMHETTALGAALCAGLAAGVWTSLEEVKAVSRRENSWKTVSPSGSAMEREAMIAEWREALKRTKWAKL

SMILES | EC50 [1] | C-1alk click biotin pulldown, LFQ LC-MS/MS [2] | modified-peptide LC-MS/MS after click to cleavable biotin-azide [3] | C-1alk click biotin pulldown, LFQ LC-MS/MS [4]
CC(C)(C)OC(=O)N1CCCC1c1ccc(S(=O)(=O)F)cn1 (stereo not shown) [C-1] | 330 nM | – | – | –
C#CCOC(=O)N1CCCC1c1ccc(S(=O)(=O)F)cn1 (stereo not shown) [C-1alk] | – | Lyso-phospholipase emerged as the sole common hit labelled by both C-1alk and FP-biotin | identify peptides matching the expected mass shift for T. brucei glycerol kinase (Q38DF0) | prolyl endo-/oligo-peptidase S9 (Q38AG2), which had been previously enriched with our C-1alk probe
